In US9012651B2, “TRPV3 modulators” (AbbVie Inc., priority 2011, dated 2015):
pEC50, pIC50: −log10 of the molar value.

Target: human TRPV3 receptors (Homo sapiens (Human), UniProt Q8NET8)
Assay: Calcium flux assay (FLIPR TETRA), inhibition of the 2-APB response
Type: cell-based
Settings: recombinant HEK293 cells stably expressing TRPV3, Calcium-4 dye, 2-APB at its EC80
Outline: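 HEK293 cells stably expressing human and mouse TRPV3, plated the day before and dye-loaded 90-120 min in the dark, read on FLIPR Tetra. Peak fluorescence increase over baseline was expressed as percent of the maximal 2-APB response without compound.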

Sequence of human TRPV3 receptors (Q8NET8 whole entry): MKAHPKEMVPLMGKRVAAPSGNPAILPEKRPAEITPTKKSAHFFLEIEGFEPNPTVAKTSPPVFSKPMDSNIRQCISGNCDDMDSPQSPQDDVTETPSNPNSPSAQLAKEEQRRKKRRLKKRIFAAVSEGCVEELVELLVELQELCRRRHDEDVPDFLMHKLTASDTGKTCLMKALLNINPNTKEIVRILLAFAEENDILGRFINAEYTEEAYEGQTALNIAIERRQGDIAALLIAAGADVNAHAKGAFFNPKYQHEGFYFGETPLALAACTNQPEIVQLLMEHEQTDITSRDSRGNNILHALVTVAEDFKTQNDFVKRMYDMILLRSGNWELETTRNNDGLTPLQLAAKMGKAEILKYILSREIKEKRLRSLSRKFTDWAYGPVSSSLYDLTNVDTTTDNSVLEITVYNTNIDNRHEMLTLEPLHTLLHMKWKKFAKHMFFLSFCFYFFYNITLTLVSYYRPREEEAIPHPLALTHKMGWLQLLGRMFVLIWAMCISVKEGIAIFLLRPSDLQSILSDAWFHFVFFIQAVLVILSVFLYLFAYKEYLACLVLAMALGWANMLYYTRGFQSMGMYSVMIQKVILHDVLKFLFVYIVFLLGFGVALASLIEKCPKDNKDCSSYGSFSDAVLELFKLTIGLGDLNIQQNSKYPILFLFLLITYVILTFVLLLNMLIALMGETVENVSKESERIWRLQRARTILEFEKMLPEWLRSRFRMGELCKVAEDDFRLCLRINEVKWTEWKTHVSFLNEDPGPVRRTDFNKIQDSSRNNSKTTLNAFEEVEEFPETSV

| Structure (SMILES) | pIC50 |
| --- | --- |
| CC(C)[C@H](CO)NCc1nc(-c2ccc(C(F)(F)F)nc2)ccc1F [Example 28, (2R)-2-({[5-fluoro-6′-(trifluoromethyl)-2,3′-bipyridin-6-yl]methyl}amino)-3-methylbutan-1-ol] | 6.02 |
| CC(C)[C@H](CO)NCc1nc(C2CCCCC2)ccc1F [Example 129] | 6.44 |
| CC(C)[C@H](CO)NCc1nc(-c2cnn(CC3OCCO3)c2)ccc1F [Example 250, (2R)-2-[({6-[1-(1,3-dioxolan-2-ylmethyl)-1H-pyrazol-4-yl]-3-fluoropyridin-2-yl}methyl)amino]-3-methylbutan-1-ol] | < 4.70 |
| CC(C)[C@H](CO)NCc1nc(-c2cnc(N(C)C)nc2)ccc1F [Example 261, (2R)-2-[({6-[2-(dimethylamino)pyrimidin-5-yl]-3-fluoropyridin-2-yl}methyl)amino]-3-methylbutan-1-ol] | 6.12 |
| CC1CCN(C(=O)c2ccc(-c3ccc(F)c(CN[C@@H](CO)C(C)C)n3)cc2)CC1 [Example 275, {4-[5-fluoro-6-({[(2R)-1-hydroxy-3-methylbutan-2-yl]amino}methyl)pyridin-2-yl]phenyl}(4-methylpiperidin-1-yl)methanone] | 5.88 |
| CC(C)[C@H](CO)NCc1nc(C2CC3CCC2C3)ccc1F (stereo partly drawn) [Example 199, (2R)-2-({[6-(bicyclo[2.2.1]hept-2-yl)-3-fluoropyridin-2-yl]methyl}amino)-3-methylbutan-1-ol] | 5.80 |
| CC(C)[C@H](CO)NCc1nc(C#CCC2CCCCC2)ccc1F [Example 236, (2R)-2-({[6-(3-cyclohexylprop-1-yn-1-yl)-3-fluoropyridin-2-yl]methyl}amino)-3-methylbutan-1-ol] | 6.01 |
| CC(C)[C@H](CO)NCc1cccc(N2CCCCC2)n1 [Example 11, (2R)-3-methyl-2-({[6-(piperidin-1-yl)pyridin-2-yl]methyl}amino)butan-1-ol] | 5.71 |
| Cc1ccc(S(=O)(=O)N(C)C)cc1-c1ccc(F)c(CN[C@@H](CO)C(C)C)n1 [Example 50, 3-[5-fluoro-6-({[(2R)-1-hydroxy-3-methylbutan-2-yl]amino}methyl)pyridin-2-yl]-N,N,4-trimethylbenzenesulfonamide] | 5.75 |

Now from value to compound:

| pIC50 | Structure (SMILES) |
| --- | --- |
| 6.24 | OCC1(NCc2cccc(-c3ccc(C(F)(F)F)cc3C(F)(F)F)n2)CCCC1 [Example 271, {1-[({6-[2,4-bis(trifluoromethyl)phenyl]pyridin-2-yl}methyl)amino]cyclopentyl}methano 1] |
| < 4.70 | OCC1(NCc2ccnc(-c3ccc(C(F)(F)F)cc3)n2)CC1 [Example 135, {1-[({2-[4-(trifluoromethyl)phenyl]pyrimidin-4-yl}methyl)amino]cyclopropyl}methanol] |
| < 4.70 | OC[C@@H](NCc1ccnc(-c2ccc(C(F)(F)F)cc2)n1)[C@H](O)c1ccccc1 [Example 154, (1R,2R)-1-phenyl-2-[({2-[4-(trifluoromethyl)phenyl]pyrimidin-4-yl}methyl)amino]propane-1,3-diol] |
| 4.82 | COc1ccc(-c2ccc(C(F)(F)F)nc2)nc1CN[C@@H](CO)C(C)C [Example 112, (2R)-2-({[5-methoxy-6′-(trifluoromethyl)-2,3′-bipyridin-6-yl]methyl}amino)-3-methylbutan-1-ol] |
| 5.26 | O[C@H]1CCCC[C@@H]1NCc1ccnc(-c2ccc(C(F)(F)F)cc2)n1 [Example 171, (1S,2S)-2-[({2-[4-(trifluoromethyl)phenyl]pyrimidin-4-yl}methyl)amino]cyclohexanol] |
| < 4.70 | OC1(CNCc2ccnc(-c3ccc(C(F)(F)F)cc3)n2)CC1 [Example 176, 1-{[({2-[4-(trifluoromethyl)phenyl]pyrimidin-4-yl}methyl)amino]methyl}cyclopropanol] |
| 5.80 | OC[C@H](NCc1nc(-c2ccc(OCC(F)(F)F)nc2)ccc1F)C1CC1 [Example 76, (2R)-2-cyclopropyl-2-({[5-fluoro-6′-(2,2,2-trifluoroethoxy)-2,3′-bipyridin-6-yl]methyl}amino)ethanol] |
| 5.86 | CC(C)[C@H](CO)NCc1ccnc(-c2ccc(Cl)cc2)n1 [Example 34, (2R)-2-({[2-(4-chlorophenyl)pyrimidin-4-yl]methyl}amino)-3-methylbutan-1-ol] |
| < 4.70 | OCC1(CNCc2ccnc(-c3ccc(C(F)(F)F)cc3)n2)CCOCC1 [Example 161] |

System: mouse Chronic Constriction Injury Model of neuropathic pain
Assay: Chronic Constriction Injury (CCI) model of neuropathic pain, mechanical allodynia (von Frey)
Type: in vivo
Settings: CD1 mice; acute oral administration, 100 mg/kg oral dose; 1 hour pretreatment P.O.; von Frey monofilaments
Excerpt: Chronic Constriction Injury (CCI) Model of Neuropathic Pain:
CD1 mice (Charles River) were used for these studies. Prior to testing (2-4 weeks) animals underwent a surgical procedure consisting of approximately 3 loose ligatures around the sciatic nerve. Briefly, following sterilization procedures, under isofluorane anesthetic, a 1.5 cm incision was made dorsal to the pelvis. The biceps femoris and gluteous superficialis (right side) were separated and the sciatic nerve exposed, isolated, and 2-4 loose ligatures (5-0 chromic gut) with <1 mm spacing were placed around it. Following hemostasis, the wound was sutured (layer of muscle closed with 5-0 nylon suture, and the wound closed with surgical staples) and coated with iodine. The mice were allowed to recover on a warming plate and are returned to their home cages (soft bedding) when able to walk on their own. Two to four weeks after the surgery, TRPV3 antagonsists were tested in these mice following P.O. (1 hour pretreatment) or I.P. (30 minutes pretreatment) dosing, and mechanical allodynia evaluated where the threshold to response was assessed using calibrated von Frey monofilaments. The von Frey monofilaments were applied to the hind paw at increasing forces until the animal responded by lifting its paw. […]

| Structure (SMILES) | effects vs. vehicle in the mouse Chronic Constriction Injury Model of neuropathic pain |
| --- | --- |
| CC(C)[C@H](CO)NCc1nc(-c2ccc(C(F)(F)F)nc2)ccc1F [Example 28, (2R)-2-({[5-fluoro-6′-(trifluoromethyl)-2,3′-bipyridin-6-yl]methyl}amino)-3-methylbutan-1-ol] | statistically significant effects vs. vehicle |
| CC(C)[C@H](CO)NCc1nc(C2CCCCC2)ccc1F [Example 129] | statistically significant effects vs. vehicle |

System: TRPV3
Assay: not given
Settings: TRPV3 activation; relatively weak and nonspecific across TRPs; cited from earlier work

| Structure (SMILES) | pEC50 |
| --- | --- |
| c1ccc(B(OB(c2ccccc2)c2ccccc2)c2ccccc2)cc1 [DPBA, diphenylboronic anhydride] | ~4.40 |
| NCCOB(c1ccccc1)c1ccccc1 [Example 2-APB, 2-aminoethoxydiphenylborate] | ~4.40 |
